Structures can show the parent of a compound that is named as a salt.
Assays:
5-HT2 receptors = target: T1, 5-HT2 receptors (Rattus norvegicus, UniProt P14842); assay: Inhibition of ^3 H-Ketanserin Binding to 5-HT2 Receptors in Rat Cortex in vitro; settings: ^3 H-Ketanserin 0,5 nM; rat cortex membranes; read-out: 5-HT2 binding ^3 H ketanserin, IC50
T1 construct: 5-HT2 Receptors in Rat Cortex in vitro; from tissue; host or cells: rat cortex membranes
Protocol: Inhibition of ^3 H-Ketanserin Binding to 5-HT2 Receptors in Rat Cortex in vitro
By this method the inhibition by drugs of the binding of ^3 H-Ketanserin (0,5 nM) to 5-HT2 receptors in membranes from rat is determined in vitro. The method is described in Hyttel, Pharmacol. & Toxicol.

dopamine D2 receptors = dopamine D2 receptors (Rattus norvegicus, UniProt P61169); assay: biochemical; format: binding; settings: read-out: Dopamin D2 binding ^3 H spiroperidol, IC50
Protocol: Inhibition of ^3 H-Spiroperidol Binding to Dopamine D2 Receptors in Rat Corpus Striatum in vitro
By this method the inhibition by drugs of the binding of ^3 H-spiroperidol (0.5 nM) to dopamine D2 receptors in membranes from rat corpus striatum is determined in vitro.

[1] = in vivo; cited from earlier work
[2] = in vivo; cited from earlier work; remark: listed apart in the source
[3] = in vivo; cited from earlier work; remark: listed apart in the source
[4] = in vivo; cited from earlier work; remark: listed apart in the source
[5] = in vivo; cited from earlier work; remark: listed apart in the source

T1 sequence (P14842 whole entry): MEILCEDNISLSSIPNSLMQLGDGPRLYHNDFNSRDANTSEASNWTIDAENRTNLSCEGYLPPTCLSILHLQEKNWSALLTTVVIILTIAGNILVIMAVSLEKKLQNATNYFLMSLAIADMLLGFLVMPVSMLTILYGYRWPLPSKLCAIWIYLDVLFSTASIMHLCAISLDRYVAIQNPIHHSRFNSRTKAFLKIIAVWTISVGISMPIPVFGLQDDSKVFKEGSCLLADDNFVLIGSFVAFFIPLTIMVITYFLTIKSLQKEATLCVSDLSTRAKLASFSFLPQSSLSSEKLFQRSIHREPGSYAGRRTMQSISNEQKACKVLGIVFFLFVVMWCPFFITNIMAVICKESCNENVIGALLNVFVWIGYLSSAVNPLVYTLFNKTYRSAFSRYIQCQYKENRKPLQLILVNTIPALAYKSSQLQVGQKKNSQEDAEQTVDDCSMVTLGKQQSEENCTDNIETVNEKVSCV
dopamine D2 receptors, sequence (P61169 whole entry): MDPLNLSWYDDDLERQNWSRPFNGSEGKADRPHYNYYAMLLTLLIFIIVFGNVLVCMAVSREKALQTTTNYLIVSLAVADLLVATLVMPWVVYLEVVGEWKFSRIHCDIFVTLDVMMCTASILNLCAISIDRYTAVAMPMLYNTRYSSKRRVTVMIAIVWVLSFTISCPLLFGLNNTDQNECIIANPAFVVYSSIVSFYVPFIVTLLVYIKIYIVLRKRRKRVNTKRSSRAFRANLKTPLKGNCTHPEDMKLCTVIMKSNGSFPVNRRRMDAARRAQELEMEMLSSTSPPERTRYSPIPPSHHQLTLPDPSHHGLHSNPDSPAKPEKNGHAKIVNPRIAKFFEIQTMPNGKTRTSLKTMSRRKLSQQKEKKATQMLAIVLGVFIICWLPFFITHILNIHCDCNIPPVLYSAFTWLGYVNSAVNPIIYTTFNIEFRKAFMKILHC

## CN(C)CCOc1cn(-c2ccc(F)cc2)c2ccc(Br)cc12 [Compound 16a, N,N-Dimethyl-2-[5-bromo-1-(4-fluorophenyl)-1H-indol-3-yloxy]ethylamine, Hydrochloride]
5-HT2 receptors
  IC50: 7 nM
Dopamine D2 receptors
  IC50: 6.2 nM

## CN(C)CCOc1cn(-c2ccc(F)cc2)c2ccc(C#N)cc12 [Compound 17a, N,N-Dimethyl-2-[5-cyano-1-(4-fluorophenyl)-1H-indol-3-yloxy]ethylamine, Hydrochloride]
5-HT2 receptors
  IC50: 21 nM
Dopamine D2 receptors
  IC50: 0.98 nM

## Cc1nc2sccn2c(=O)c1CCN1CCC(=C(c2ccc(F)cc2)c2ccc(F)cc2)CC1 [ritanserin]
[1]
  neuroleptic-induced parkinsonism: relieve neuroleptic-induced parkinsonism
[2]
  antidepressant effect / depressive symptoms of schizophrenia: shown to be an antidepressant and to improve depressive symptoms of schizophrenia
[3]
  quality of sleep: improve the quality of sleep
[4]
  effects in an animal test indicative of anxiolytic drug activity: exert effects in an animal test indicative of anxiolytic drug activity
[5]
  abuse of alcohol and drugs: reduce abuse of alcohol and drugs

Source: patent US5789404A, “3-substituted 1-arylindole compounds” (H. Lundbeck A/S, priority 1993, dated 1998)
